# Assay results reported in ChEMBL document CHEMBL3991601, “The target landscape of clinical kinase drugs” (Science, 2017).
# The source made the active and inactive calls. Cut-off read from the data, not from the text of the source, for most assays here: actives have a measured Kd and inactives only a lower limit.
# Assays:
# [1] = molecular target: Tyrosine-protein kinase ABL2 (Homo sapiens, UniProt P42684)
# [2] = molecular target: Actin-related protein 2 (Homo sapiens, UniProt P61160)
# [3] = molecular target: Cyclin-dependent kinase 7 (Homo sapiens, UniProt P50613)
# [4] = molecular target: Tyrosine-protein kinase Fer (Homo sapiens, UniProt P16591)
# [5] = molecular target: Fibroblast growth factor receptor 1 (Homo sapiens, UniProt P11362)
# [6] = molecular target: Glycogen synthase kinase-3 beta (Homo sapiens, UniProt P49841)
# [7] = molecular target: MAP/microtubule affinity-regulating kinase 3 (Homo sapiens, UniProt P27448)
# [8] = molecular target: S-adenosylmethionine synthase isoform type-2 (Homo sapiens, UniProt P31153)
# [9] = molecular target: T1, Membrane-associated tyrosine- and threonine-specific cdc2-inhibitory kinase (Homo sapiens, UniProt Q99640)
# T1 sequence (Q99640 whole entry): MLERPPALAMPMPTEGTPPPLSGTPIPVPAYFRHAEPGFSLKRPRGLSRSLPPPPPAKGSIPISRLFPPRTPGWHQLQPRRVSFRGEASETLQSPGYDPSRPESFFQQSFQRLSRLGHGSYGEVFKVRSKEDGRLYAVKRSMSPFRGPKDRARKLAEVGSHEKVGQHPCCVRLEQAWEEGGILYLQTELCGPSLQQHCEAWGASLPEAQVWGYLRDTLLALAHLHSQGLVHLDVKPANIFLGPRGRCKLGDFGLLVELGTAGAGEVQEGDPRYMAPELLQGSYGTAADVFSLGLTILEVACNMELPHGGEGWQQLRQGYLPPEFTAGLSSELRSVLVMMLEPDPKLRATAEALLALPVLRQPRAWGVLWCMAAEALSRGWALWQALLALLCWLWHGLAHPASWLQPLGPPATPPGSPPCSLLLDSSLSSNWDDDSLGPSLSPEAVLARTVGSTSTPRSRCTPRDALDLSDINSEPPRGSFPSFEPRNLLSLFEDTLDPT
# [10] = molecular target: 26S proteasome regulatory subunit 6B (Homo sapiens, UniProt P43686)
# [11] = molecular target: Receptor-interacting serine/threonine-protein kinase 3 (Homo sapiens, UniProt Q9Y572)
# [12] = molecular target: T2, STE20-related kinase adapter protein alpha (Homo sapiens, UniProt Q7RTN6)
# T2 sequence (Q7RTN6 whole entry): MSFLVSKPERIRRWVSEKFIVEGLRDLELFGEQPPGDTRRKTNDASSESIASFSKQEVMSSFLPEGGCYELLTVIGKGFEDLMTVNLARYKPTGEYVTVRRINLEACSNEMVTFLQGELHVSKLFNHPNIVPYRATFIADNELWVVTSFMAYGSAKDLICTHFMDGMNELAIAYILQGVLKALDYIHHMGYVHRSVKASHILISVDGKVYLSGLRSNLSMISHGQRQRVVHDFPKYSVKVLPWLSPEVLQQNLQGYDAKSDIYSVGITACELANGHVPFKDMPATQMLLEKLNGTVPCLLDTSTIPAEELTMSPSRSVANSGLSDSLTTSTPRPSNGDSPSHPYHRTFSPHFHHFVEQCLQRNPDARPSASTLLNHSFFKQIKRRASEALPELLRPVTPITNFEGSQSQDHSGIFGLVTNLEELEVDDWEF
# [13] = molecular target: T3, Serine/threonine-protein kinase TAO2 (Homo sapiens, UniProt Q9UL54)
# T3 sequence (Q9UL54 whole entry): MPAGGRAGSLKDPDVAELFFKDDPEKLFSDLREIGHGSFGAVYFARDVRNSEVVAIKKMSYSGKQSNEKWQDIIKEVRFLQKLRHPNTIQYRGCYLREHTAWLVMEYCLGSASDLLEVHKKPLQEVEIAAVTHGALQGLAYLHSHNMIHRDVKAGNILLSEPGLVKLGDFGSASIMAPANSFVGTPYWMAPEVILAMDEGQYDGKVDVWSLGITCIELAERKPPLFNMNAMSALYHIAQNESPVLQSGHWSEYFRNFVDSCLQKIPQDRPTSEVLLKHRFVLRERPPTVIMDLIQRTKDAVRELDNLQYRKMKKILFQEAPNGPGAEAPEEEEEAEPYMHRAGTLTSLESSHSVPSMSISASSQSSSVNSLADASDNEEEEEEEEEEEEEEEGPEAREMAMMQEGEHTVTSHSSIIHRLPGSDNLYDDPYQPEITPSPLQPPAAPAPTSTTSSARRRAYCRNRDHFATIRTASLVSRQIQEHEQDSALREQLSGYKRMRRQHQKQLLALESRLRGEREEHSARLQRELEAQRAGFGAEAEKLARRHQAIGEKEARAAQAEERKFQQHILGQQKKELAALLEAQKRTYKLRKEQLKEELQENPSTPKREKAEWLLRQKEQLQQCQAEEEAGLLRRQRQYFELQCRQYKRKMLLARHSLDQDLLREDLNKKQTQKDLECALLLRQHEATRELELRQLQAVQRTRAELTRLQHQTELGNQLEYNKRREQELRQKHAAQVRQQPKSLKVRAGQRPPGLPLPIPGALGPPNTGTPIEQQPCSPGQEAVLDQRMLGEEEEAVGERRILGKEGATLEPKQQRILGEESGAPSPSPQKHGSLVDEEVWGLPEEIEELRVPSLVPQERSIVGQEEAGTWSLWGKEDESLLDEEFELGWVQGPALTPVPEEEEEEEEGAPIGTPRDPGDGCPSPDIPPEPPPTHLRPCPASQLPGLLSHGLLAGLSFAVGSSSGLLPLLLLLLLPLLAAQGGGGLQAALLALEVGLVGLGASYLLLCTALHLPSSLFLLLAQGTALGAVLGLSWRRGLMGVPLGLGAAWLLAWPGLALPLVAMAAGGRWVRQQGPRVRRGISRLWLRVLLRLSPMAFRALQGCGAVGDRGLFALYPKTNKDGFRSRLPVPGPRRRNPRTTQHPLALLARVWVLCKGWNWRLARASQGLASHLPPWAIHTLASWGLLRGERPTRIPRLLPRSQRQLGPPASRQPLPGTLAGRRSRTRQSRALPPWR
# [14] = molecular target: Mitogen-activated protein kinase kinase kinase 20 (Homo sapiens, UniProt Q9NYL2)
# Note: in the data inactive means no Kd found up to 30 µM.
# Sequence of 26S proteasome regulatory subunit 6B (P43686 whole entry): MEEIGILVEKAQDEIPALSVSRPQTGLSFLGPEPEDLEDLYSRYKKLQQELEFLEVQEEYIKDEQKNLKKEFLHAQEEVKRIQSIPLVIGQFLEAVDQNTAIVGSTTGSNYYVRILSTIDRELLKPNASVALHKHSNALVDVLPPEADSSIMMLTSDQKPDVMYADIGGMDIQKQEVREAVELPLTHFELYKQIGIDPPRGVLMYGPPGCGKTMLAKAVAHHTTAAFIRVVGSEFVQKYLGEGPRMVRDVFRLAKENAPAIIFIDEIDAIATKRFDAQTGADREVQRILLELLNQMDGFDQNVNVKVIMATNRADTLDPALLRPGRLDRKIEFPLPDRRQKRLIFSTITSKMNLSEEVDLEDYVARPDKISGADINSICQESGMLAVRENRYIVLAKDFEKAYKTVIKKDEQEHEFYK
# Sequence of Cyclin-dependent kinase 7 (P50613 whole entry): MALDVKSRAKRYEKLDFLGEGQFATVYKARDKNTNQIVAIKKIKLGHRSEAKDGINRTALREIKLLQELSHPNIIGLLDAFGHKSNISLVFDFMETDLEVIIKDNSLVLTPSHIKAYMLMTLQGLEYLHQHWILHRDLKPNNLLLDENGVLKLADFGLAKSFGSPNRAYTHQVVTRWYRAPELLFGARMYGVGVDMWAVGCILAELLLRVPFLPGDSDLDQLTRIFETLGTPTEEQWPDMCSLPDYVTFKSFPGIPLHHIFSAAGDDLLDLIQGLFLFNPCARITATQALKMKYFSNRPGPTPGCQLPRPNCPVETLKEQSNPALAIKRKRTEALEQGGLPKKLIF
# Sequence of S-adenosylmethionine synthase isoform type-2 (P31153 whole entry, canonical isoform): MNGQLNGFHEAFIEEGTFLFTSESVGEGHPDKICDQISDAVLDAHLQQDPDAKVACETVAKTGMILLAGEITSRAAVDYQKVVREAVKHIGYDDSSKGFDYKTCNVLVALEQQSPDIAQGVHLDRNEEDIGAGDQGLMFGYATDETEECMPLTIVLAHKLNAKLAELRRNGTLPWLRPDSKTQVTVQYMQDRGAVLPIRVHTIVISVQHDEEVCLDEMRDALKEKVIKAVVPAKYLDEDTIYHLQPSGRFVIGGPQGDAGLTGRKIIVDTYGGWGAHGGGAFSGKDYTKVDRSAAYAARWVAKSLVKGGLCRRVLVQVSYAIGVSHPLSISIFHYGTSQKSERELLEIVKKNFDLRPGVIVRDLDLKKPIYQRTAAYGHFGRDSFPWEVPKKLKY
# Sequence of Receptor-interacting serine/threonine-protein kinase 3 (Q9Y572 whole entry): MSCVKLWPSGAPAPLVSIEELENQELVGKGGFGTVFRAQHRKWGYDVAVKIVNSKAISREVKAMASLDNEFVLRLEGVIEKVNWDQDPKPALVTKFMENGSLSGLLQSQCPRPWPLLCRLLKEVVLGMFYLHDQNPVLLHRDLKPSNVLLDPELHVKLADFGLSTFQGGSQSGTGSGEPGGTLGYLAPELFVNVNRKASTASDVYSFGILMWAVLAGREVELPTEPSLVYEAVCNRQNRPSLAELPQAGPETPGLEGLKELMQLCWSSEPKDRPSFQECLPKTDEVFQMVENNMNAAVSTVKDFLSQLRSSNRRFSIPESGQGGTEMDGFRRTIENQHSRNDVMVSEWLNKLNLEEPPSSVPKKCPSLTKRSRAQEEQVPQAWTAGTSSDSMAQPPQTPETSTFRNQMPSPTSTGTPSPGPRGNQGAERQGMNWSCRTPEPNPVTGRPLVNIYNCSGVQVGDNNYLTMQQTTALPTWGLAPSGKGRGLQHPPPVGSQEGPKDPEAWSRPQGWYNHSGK
# Sequence of Glycogen synthase kinase-3 beta (P49841 whole entry): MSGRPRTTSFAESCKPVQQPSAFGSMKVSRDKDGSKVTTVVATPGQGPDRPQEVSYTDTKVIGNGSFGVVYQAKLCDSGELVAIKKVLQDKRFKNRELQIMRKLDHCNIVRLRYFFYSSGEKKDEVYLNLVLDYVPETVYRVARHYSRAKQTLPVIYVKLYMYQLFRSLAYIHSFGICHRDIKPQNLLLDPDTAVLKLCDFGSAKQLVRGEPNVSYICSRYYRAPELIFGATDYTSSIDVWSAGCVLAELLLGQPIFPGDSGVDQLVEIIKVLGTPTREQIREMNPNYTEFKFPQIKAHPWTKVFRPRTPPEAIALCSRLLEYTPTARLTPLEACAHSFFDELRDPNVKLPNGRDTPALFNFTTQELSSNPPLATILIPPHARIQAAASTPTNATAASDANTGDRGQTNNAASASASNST
# Sequence of MAP/microtubule affinity-regulating kinase 3 (P27448 whole entry, canonical isoform): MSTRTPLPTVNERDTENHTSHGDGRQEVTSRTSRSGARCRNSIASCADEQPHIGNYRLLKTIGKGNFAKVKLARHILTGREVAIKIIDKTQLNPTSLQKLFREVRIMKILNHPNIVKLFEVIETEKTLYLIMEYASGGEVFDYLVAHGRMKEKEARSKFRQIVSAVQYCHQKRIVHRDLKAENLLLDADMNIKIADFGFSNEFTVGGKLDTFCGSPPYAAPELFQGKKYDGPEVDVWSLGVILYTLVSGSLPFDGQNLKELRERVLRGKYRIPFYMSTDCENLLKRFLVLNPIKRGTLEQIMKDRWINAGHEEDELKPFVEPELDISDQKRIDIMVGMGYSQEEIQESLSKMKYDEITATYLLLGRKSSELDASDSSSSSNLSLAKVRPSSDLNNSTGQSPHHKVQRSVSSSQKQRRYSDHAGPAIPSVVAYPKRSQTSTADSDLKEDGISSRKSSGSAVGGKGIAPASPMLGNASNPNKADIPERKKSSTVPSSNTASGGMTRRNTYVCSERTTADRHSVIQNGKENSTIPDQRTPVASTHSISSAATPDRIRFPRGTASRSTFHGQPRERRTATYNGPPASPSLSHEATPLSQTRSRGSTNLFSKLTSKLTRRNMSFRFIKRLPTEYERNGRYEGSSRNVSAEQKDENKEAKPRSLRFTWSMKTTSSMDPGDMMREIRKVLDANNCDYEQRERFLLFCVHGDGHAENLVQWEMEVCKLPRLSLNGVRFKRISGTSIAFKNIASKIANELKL
# Sequence of Tyrosine-protein kinase ABL2 (P42684 whole entry): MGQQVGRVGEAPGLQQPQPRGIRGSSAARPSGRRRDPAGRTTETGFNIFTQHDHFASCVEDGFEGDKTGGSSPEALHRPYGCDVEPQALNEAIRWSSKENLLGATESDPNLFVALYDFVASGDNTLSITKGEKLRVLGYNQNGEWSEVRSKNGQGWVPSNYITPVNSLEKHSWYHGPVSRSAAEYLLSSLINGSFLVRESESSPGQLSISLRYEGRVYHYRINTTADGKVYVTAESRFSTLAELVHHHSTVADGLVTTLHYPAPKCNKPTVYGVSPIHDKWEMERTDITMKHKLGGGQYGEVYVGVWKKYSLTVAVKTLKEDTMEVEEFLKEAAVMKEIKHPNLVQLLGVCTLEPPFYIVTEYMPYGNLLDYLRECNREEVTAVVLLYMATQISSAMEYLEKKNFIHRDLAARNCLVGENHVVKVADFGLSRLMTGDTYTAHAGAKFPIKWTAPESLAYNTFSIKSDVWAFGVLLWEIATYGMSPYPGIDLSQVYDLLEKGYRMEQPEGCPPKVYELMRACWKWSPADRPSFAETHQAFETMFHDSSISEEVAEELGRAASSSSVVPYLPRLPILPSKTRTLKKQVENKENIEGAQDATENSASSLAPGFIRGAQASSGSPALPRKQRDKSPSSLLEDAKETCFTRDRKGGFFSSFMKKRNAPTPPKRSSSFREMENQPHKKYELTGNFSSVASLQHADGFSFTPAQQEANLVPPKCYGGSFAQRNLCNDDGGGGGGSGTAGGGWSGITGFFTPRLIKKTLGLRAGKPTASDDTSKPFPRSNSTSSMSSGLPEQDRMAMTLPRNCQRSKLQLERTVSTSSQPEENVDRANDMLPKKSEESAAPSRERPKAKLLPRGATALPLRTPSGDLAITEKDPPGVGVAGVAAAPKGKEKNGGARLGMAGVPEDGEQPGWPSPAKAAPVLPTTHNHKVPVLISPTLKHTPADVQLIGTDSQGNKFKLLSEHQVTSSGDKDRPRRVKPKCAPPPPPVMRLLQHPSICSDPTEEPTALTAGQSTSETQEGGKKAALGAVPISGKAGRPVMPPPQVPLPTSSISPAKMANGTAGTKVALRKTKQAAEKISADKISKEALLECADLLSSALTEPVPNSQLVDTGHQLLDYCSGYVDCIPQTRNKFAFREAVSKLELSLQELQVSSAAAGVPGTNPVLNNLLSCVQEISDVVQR
# Sequence of Mitogen-activated protein kinase kinase kinase 20 (Q9NYL2 whole entry): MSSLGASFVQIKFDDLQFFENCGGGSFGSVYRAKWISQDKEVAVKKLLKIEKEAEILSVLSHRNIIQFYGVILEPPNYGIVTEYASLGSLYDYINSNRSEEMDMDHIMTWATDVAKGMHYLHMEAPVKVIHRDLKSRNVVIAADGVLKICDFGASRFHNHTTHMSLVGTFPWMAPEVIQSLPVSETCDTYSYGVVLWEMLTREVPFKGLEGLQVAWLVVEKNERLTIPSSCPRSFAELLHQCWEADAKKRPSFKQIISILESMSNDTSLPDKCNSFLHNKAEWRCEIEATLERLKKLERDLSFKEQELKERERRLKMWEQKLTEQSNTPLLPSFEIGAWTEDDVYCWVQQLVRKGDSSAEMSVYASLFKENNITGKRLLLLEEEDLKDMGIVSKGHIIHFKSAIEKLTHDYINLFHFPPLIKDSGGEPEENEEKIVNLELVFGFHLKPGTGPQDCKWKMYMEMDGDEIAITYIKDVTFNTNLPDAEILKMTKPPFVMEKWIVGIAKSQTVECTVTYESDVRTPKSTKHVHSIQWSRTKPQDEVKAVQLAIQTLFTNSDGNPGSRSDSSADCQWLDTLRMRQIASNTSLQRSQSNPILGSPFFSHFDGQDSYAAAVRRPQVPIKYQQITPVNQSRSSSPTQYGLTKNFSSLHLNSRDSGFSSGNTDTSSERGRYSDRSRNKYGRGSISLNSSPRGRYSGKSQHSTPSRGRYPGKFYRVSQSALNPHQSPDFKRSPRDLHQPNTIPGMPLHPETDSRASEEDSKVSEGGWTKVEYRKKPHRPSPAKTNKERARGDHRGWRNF
Kd [1],Kd [2],Kd [3],Kd [4],Kd [5],Kd [6],Kd [7],Kd [8],Kd [9],Kd [10],Kd [11],Kd [12],Kd [13],Kd [14],Compound
> 30 µM (inactive),> 30 µM (inactive),> 30 µM (inactive),> 30 µM (inactive),> 30 µM (inactive),> 30 µM (inactive),> 30 µM (inactive),> 30 µM (inactive),> 30 µM (inactive),> 30 µM (inactive),> 30 µM (inactive),> 30 µM (inactive),> 30 µM (inactive),> 30 µM (inactive),Cc1ccc(S(=O)(=O)Nc2nc3ccccc3nc2Nc2ccc3nsnc3c2)cc1
> 30 µM (inactive),> 30 µM (inactive),> 30 µM (inactive),> 30 µM (inactive),> 30 µM (inactive),> 30 µM (inactive),> 30 µM (inactive),> 30 µM (inactive),> 30 µM (inactive),> 30 µM (inactive),> 30 µM (inactive),> 30 µM (inactive),> 30 µM (inactive),> 30 µM (inactive),CN1CCC(CNc2ccc3ncc(-c4cccc(OC(F)(F)F)c4)n3n2)CC1 [SGI-1776]
> 30 µM (inactive),> 30 µM (inactive),> 30 µM (inactive),> 30 µM (inactive),> 30 µM (inactive),> 30 µM (inactive),> 30 µM (inactive),> 30 µM (inactive),> 30 µM (inactive),> 30 µM (inactive),2.08 µM (active),> 30 µM (inactive),> 30 µM (inactive),0.316 µM (active),CCCS(=O)(=O)Nc1ccc(F)c(C(=O)c2c[nH]c3ncc(-c4ccc(Cl)cc4)cc23)c1F [VEMURAFENIB]
